Patent US20040072184A1 (priority 2003, published 2004)

Tested on: SGK2
Format: cell-based, human

SMILES	CapK sub (CCPM1)	No-Substrate (CCPM1)	PKB sub (CCPM1)	SGK2 kinase activity (result in words)
COC[C@@H]([C@H](O)[C@H](O)C(=O)NCC[C@H](C)c1nc(/C=C/C[C@@H]2O[C@]3(C[C@@H](O)[C@@H]2C)O[C@H]([C@H](C[C@H](O)[C@H](C)[C@H](O)[C@H](C)/C=C(C)/C(C)=C/C=C/C(C)=C\C#N)OC)[C@H](OP(=O)(O)O)C3(C)C)co1)N(C)C [Calyculin A]	59335	0	92540	stimulated SGK2 kinase activity
C=C1[C@@H](O)[C@@H]2O[C@]3(CC[C@H](/C=C/[C@@H](C)[C@@H]4CC(C)=C[C@@]5(O[C@H](C[C@@](C)(O)C(=O)O)CC[C@H]5O)O4)O3)CC[C@H]2O[C@@H]1[C@@H](O)C[C@H](C)[C@H]1O[C@@]2(CCCCO2)CC[C@H]1C [Okadaic Acid]	161553	2078	132171	stimulated SGK2 kinase activity
